Entries after “also recorded” stand apart in the source; their conditions may differ.
Experiments:
[1] = tested on: HaCaT cells; test: Scratch assay in HaCaT; format: cell-based, human
Protocol: Scratch Assay in HaCaT. HaCaT cells (passage 35-40) were seeded at a density of 2×10^4 cells/well in fibronectin-coated 96-well plate in DMEM supplemented with 1% (v/v) penicillin and streptomycin and 10% (v/v) FBS. After 48 h, cells were firstly starved for 15 h in DMEM with 0.5% FBS and then incubated with LL-37 (1 μg/mL), LL-37 AUNPs and AUNPs (200 μg/mL) for 5 h at 37° C. and 5% CO2. All the chemical inhibitors for FPRL1, EGFR, ADAM17 and Purinergic receptor were added into cells 1 hour before and for all the incubation time with LL37, LL37-Au NPs or AuNPs. After treatments, cells were washed twice with PBS to remove non-internalized NPs and a scratch was created with a sterile pipet tip. The detached cells were washed twice with PBS and then plates were re-coated with fibronectin (10 μg/mL in starvation medium) for 1 hour at 37° C. At this point (t=0), the first images were taken on In Cell Microscope 2000 (GE Healthcare) (objective 2×). Then cells were washed and maintained in starvation medium up to 72 h. During this time, cell migration was monitored and more images were taken up to 72 h. Scratch areas were quantified using the AxioVision software (Carl Zeiss). Wound areas were normalized by the initial area (n=8 images). On the other hand, to test the prolonged effect of LL37-Au NPs on HaCaT migration, cells were plated in fibronectin-coated 24-well plate (2×10^5 cells/well), after 48 h cells were starved for 15 h in DMEM with 0.5% FBS and then the scratch was made with a sterile pipet tip. Only after the cells were incubated with LL-37 (1 μg/mL), LL37-Au NPs and AuNPs (15 μg/mL) in starvation medium up to 96 h. During this time, cell migration was monitored and images were taken and scratch area quantified.
In an embodiment, the NP bioactivity was carried out by scratch assay. Keratinocytes (passage 35-40) were seeded at a density of 2×10^4 cells/well in fibronectin-coated 96-well plate in DMEM supplemented with 1% (v/v) penicillin and streptomycin and 10% (v/v) FBS. After 48 h, cells were initially starved for 15 h in DMEM with 0.5% FBS, inactivated with mitomycin (5 μg/mL) for 2 h, and then incubated with LL37 (1 μg/mL), LL37-Au NPs or Au NPs (both at 200 μg/mL) for 5 h at 37° C. and 5% CO2. In case of chemical inhibition, the chemical inhibitors for FPRL1 (WRW4, Calbiochem, 10 μM), EGFR (Erlotinib HCL, OSI-744, Selleck Chemicals, 2 nM), ADAM17 (Marimastat, Sigma, 10 μM), P2X (PPADS, Sigma, 100 μM), for P2X7 (A-740003, Sigma, at a concentration of 500 nM), were added to the cells 1 h before the incubation with LL37 peptide and LL37-Au NPs and then maintained during the assay. […] After the 5 h treatment, cells were washed twice with PBS to remove non-internalized NPs and a scratch was created with a sterile pipette tip. The detached cells were washed twice with PBS and then plates were re-coated with fibronectin (10 μg/mL in starvation medium) for 1 h at 37° C. Cells were washed and maintained in starvation medium up to 72 h. Cell migration was monitored overtime by a in Cell Microscope 2000 (GE Healthcare) (objective 2×). The cells treated with LL37 peptide were cultured with starvation medium containing LL37 for the entire duration of the experiment. Scratch areas were quantified using the AxioVision software (Carl Zeiss). Wound areas were normalized by the initial area (n=6 images). In case of siRNA knock-down studies, on-target plus human ADAM17 siRNA or P2X7R siRNA (both from Dharmacon) were used to silence ADAM17 or P2X7 before performing the scratch assay. Keratinocytes were transfected with 50 nM siRNA using 0.25 μL of Lipofectamine RNAiMAX (Life Technologies) for 24 h in antibiotic-free complete medium before starting the scratch assay. […]

[2] = tested on: HUVECs; test: Cytotoxicity in HUVECs (PI viability, ATP, ROS); format: cell-based
Protocol: In an embodiment of the cytotoxicity studies in HUVECs and HaCaT may be seeded at a density of 1×10^4 and 2×10^4 cells per well respectively and cultured in a 96-well plate for 24 and then incubated with soluble LL37 (0.5, 1, 10, 30, 60 μg/mL), LL37 Au-NPs and AuNPs suspended in culture medium at different concentrations (25, 50, 100 and 200 μg/mL). After 5 and 24 h, CellTiter-Glo® Luminescent Cell Viability Assay (Promega) was used to assess the ATP production of the cells according to the supplier's instructions. For ROS quantification, cells were seeded at a density of 4×10^4 cells/cm^2 in 24-well plates and cultured for 24 h. Either LL37-Au NPs or Au NPs suspended in culture medium at different concentrations (25, 50, 100 and 200 μg/mL) were added to cells and left for 5 h and 48 h. Before the treatment ended, cells were dosed with 100 μM of 6-carboxy-2′,7′-dichlorodihydrofluorescein diacetate (DCFH-DA), a dye commonly used to measure intracellular changes in ROS, for 1 hour. After washing the cells twice, they were trypsinized, centrifuged and resuspended in PBS to proceed with flow cytometry analysis (FACS Canto II, BD Biosciences). 1 mM H2O2 was used as a positive control for ROS production. In addition, propidium iodide (PI) (1 μg/mL final concentration) was used to quantify cell viability and to exclude the dead cells (i.e. PI positive cells) from the DCFH analysis.

## CC[C@H](C)[C@H](NC(=O)[C@H](CCCCN)NC(=O)[C@H](CCC(=O)O)NC(=O)[C@H](CCCCN)NC(=O)[C@H](CO)NC(=O)[C@H](CCCCN)NC(=O)[C@H](CCCNC(=N)N)NC(=O)[C@H](Cc1ccccc1)NC(=O)[C@H](Cc1ccccc1)NC(=O)[C@H](CC(=O)O)NC(=O)CNC(=O)[C@H](CC(C)C)NC(=O)[C@@H](N)CC(C)C)C(=O)NCC(=O)N[C@@H](CCCCN)C(=O)N[C@@H](CCC(=O)O)C(=O)N[C@@H](Cc1ccccc1)C(=O)N[C@@H](CCCCN)C(=O)N[C@@H](CCCNC(=N)N)C(=O)N[C@H](C(=O)N[C@H](C(=O)N[C@@H](CCC(N)=O)C(=O)N[C@@H](CCCNC(=N)N)C(=O)N[C@H](C(=O)N[C@@H](CCCCN)C(=O)N[C@@H](CC(=O)O)C(=O)N[C@@H](Cc1ccccc1)C(=O)N[C@@H](CC(C)C)C(=O)N[C@@H](CCCNC(=N)N)C(=O)N[C@@H](CC(N)=O)C(=O)N[C@@H](CC(C)C)C(=O)N[C@H](C(=O)N1CCC[C@H]1C(=O)N[C@@H](CCCNC(=N)N)C(=O)N[C@H](C(=O)N[C@@H](CCC(=O)O)C(=O)N[C@@H](CO)C(=O)N[C@@H](CS)C(N)=O)[C@@H](C)O)C(C)C)[C@@H](C)CC)C(C)C)[C@@H](C)CC [LL37]
[1]; A-740003 500 nM
  effect of P2X7 antagonist A-740003 on migration: inhibited; also recorded: significant decrease
[1]; Erlotinib 2 nM
  effect of EGFR inhibitor Erlotinib on migration: decreased significantly
[1]; LL37 1 μg/mL, NPs 200 μg/mL, listed as LL37 peptide
  migration of keratinocytes: induced the migration; also recorded: induce the migratory properties
[1]; Marimastat 10 μM
  effect of ADAM inhibitor Marimastat on migration: significantly decreased; also recorded: significant decrease
[1]; PPADS 100 μM
  effect of purinergic antagonist PPADS on migration: inhibited; also recorded: significant decrease
[1]; WRW4 10 μM
  effect of FPRL-1 antagonist WRW4 on migration: no measurable effect
[1]; siRNA ADAM17
  effect of ADAM17 siRNA knockdown on migration: decreased the migratory properties; also recorded: reduced migratory effect
[1]; siRNA P2X7
  effect of P2X7 siRNA knockdown on migration: inhibited; also recorded: reduced migratory effect
[2]
  concentration showing cytotoxic effect: 10000 ng/mL
[2]; 5 and 48 h
  concentration up to which no significant change in cell viability, ATP production, ROS: ≤ 30000 ng/mL
[2]; 48 h
  concentration at which significant cell death and ROS production were observed: 30000 ng/mL
